Measured values taken from patent US12371454B2, “Cyclic peptide compound having Kras inhibitory action” (priority 2019, dated 2025).
pIC50: −log10 of the molar value. Starred links: 1 amine or outer side, 2 acyl side, 3 side chain; linkers in the order of their positions; H or OH if unused. Positions of bridges follow the written chain, without caps; N, C: chain ends. Non-standard residues stand in square brackets, D forms with d. Residues, ends and D or L forms follow the SMILES beside them. *: point of attachment. hPhe(3-Cl-4-CF3) = N[C@@H](CCc1ccc(C(F)(F)F)c(Cl)c1)C(=O)O; X19 = CC(C)(C)Oc1cc(CC[C@H](N[*:1])C(=O)[*:2])cc(Cl)c1Cl; X28 = CCCCOc1cc(CC[C@H](N[*:1])C(=O)[*:2])cc(Cl)c1Cl; X29 = N#Cc1cc(CC[C@H](N[*:1])C(=O)[*:2])cc(Cl)c1Cl; X15 = COc1cc(CC[C@H](N[*:1])C(=O)[*:2])cc(Cl)c1Cl; X49 = Cn1ccc2cc(CC[C@H](N[*:1])C(=O)[*:2])ccc21; NMePhe(4-Me) = CN[C@@H](Cc1ccc(C)cc1)C(=O)O; NMeAla(cPent) = CN[C@@H](CC1CCCC1)C(=O)O; NMeGly(cPent) = CN[C@H](C(=O)O)C1CCCC1; X21 = O=C(CN(c1cccc(Cl)c1)[*:1])[*:2]; X43 = O=C(CN(c1ccc(Cl)cc1)[*:1])[*:2]; NMeGly(cBu) = CN[C@H](C(=O)O)C1CCC1; NMeCha = CN[C@@H](CC1CCCCC1)C(=O)O; NMeChg = CN[C@H](C(=O)O)C1CCCCC1; NMeD = CN[C@@H](CC(=O)O)C(=O)O; NMeL = CN[C@@H](CC(C)C)C(=O)O; NMeNva = CCC[C@H](NC)C(=O)O; NMeV = CN[C@H](C(=O)O)C(C)C; NMeAbu = CC[C@H](NC)C(=O)O; NMeS = CN[C@@H](CO)C(=O)O; NPhGly = O=C(O)CNc1ccccc1; Morpholide = C1CN(*)CCO1; NMeA = CN[C@@H](C)C(=O)O; NMeAib = CNC(C)(C)C(=O)O; Piperidide = C1CCN(*)CC1; Pyrrolidide = C1CCN(*)C1; Ac5c = NC1(C(=O)O)CCCC1; Aze = O=C(O)[C@@H]1CCN1; Sar = CNCC(=O)O; Propyl = CCC*

Columns and labels:
[1] = target: T1, Kras and SOS1 (biotin-tagged human Kras loaded with GDP, His-tagged human SOS1) (Homo sapiens, UniProt P01116, G12D); assay: Protein-protein interaction inhibition between Kras and SOS1 (KrasGl2D-SOS PPI) using AlphaScreen; assay type: binding; details: AlphaScreen; biotin-tagged human Kras loaded with GDP, His-tagged human SOS1; read-out: KRAS G12D-SOS PPI IC50
T1 construct: made in house; host or cells: E. coli (stated for Kras only)
T1 sequence (P01116 1-188 isoform P01116-2 G12D): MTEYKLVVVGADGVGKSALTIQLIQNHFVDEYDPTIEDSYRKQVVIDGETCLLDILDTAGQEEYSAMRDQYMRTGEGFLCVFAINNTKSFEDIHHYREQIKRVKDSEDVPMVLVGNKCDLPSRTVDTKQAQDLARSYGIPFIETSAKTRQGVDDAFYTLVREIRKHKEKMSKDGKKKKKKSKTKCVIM
Outline: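 Read-out is acceptor-bead light at 520-620 nm, arising when 680 nm-irradiated nickel donor beads pass singlet oxygen to streptavidin acceptors. The bead pair links His-tagged SOS1 with biotin-tagged, GDP-bound Kras from E. coli.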

[2] = tested on: Human pancreatic cancer cell line AsPC-1; assay: Measurement of AsPC-1 cell growth inhibition (AsPC-1 CGI); assay type: cell-based; details: 96 h
Outline: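 AsPC-1 cells in 15% FBS RPMI-1640 were exposed to test compound for 96 hours at 37° C, with CellTiter-Glo as endpoint.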

| Structure (SMILES) | pIC50 [1] | pIC50 [2] |
| --- | --- | --- |
| CCC[C@H]1C(=O)N[C@@H]([C@@H](C)CC)C(=O)N(C)CC(=O)N(C)CC(=O)N(C)[C@@H](CC2CCCC2)C(=O)N(C)CC(=O)N[C@@H](CCc2ccc(C(F)(F)F)c(Cl)c2)C(=O)N2CCC[C@H]2C(=O)NC2(CCCC2)C(=O)N(C)[C@@H](C2CCCCC2)C(=O)N(C)[C@H](C(=O)N2CCOCC2)CC(=O)N1C [Compound 1998] ([NMeNva]I[Sar][Sar][NMeAla(cPent)][Sar][hPhe(3-Cl-4-CF3)]P[Ac5c][NMeChg][NMeD]-Morpholide; lactam N-11) | 9.12 | 6.30 to 7.00 |
| CC[C@H](C)[C@@H]1NC(=O)[C@H](CC)N(C)C(=O)C[C@@H](C(=O)N2CCOCC2)N(C)C(=O)[C@H](C2CCCCC2)N(C)C(=O)C2(CCCC2)NC(=O)[C@@H]2CCCN2C(=O)[C@H](CCc2ccc(C(F)(F)F)c(Cl)c2)NC(=O)CN(C)C(=O)[C@H](CC2CCCC2)N(C)C(=O)CN(C)C(=O)CN(C)C1=O [Compound 1999] ([NMeAbu]I[Sar][Sar][NMeAla(cPent)][Sar][hPhe(3-Cl-4-CF3)]P[Ac5c][NMeChg][NMeD]-Morpholide; lactam N-11) | 9.09 | 6.30 to 7.00 |
| CCC[C@H]1C(=O)N[C@@H]([C@@H](C)CC)C(=O)N(C)CC(=O)N(C)CC(=O)N(C)[C@@H](Cc2ccc(C)cc2)C(=O)N(C)CC(=O)N[C@@H](CCc2ccc(C(F)(F)F)c(Cl)c2)C(=O)N2CCC[C@H]2C(=O)NC2(CCCC2)C(=O)N(C)[C@@H](C2CCCCC2)C(=O)N(C)[C@H](C(=O)N2CCCC2)CC(=O)N1C [Compound 2004] ([NMeNva]I[Sar][Sar][NMePhe(4-Me)][Sar][hPhe(3-Cl-4-CF3)]P[Ac5c][NMeChg][NMeD]-Pyrrolidide; lactam N-11) | 9.48 | 7.30 to 7.70 |
| CCCOC[C@H]1C(=O)N(C)CC(=O)N[C@@H](CCc2ccc(C(F)(F)F)c(Cl)c2)C(=O)N2CCC[C@H]2C(=O)NC2(CCCC2)C(=O)N(C)[C@@H](C2CCCCC2)C(=O)N(C)[C@H](C(=O)N2CCCC2)CC(=O)N(C)[C@@H](CCC)C(=O)N[C@@H]([C@@H](C)CC)C(=O)N(C)CC(=O)N(C)CC(=O)N1C [Compound 2005] ([NMeNva]I[Sar][Sar][NMeS](Propyl)[Sar][hPhe(3-Cl-4-CF3)]P[Ac5c][NMeChg][NMeD]-Pyrrolidide; lactam N-11) | 9.19 | 7.00 to 7.30 |
| CCCOC[C@H]1C(=O)N(C)CC(=O)N[C@@H](CCc2ccc(C(F)(F)F)c(Cl)c2)C(=O)N2CCC[C@H]2C(=O)NC2(CCCC2)C(=O)N(C)[C@@H](C2CCCCC2)C(=O)N(C)[C@H](C(=O)N2CCCC2)CC(=O)N(C)[C@@H](CC(C)C)C(=O)N[C@@H]([C@@H](C)CC)C(=O)N(C)CC(=O)N(C)CC(=O)N1C [Compound 2006] ([NMeL]I[Sar][Sar][NMeS](Propyl)[Sar][hPhe(3-Cl-4-CF3)]P[Ac5c][NMeChg][NMeD]-Pyrrolidide; lactam N-11) | 9.21 | 7.00 to 7.30 |
| CC[C@H](C)[C@@H]1NC(=O)[C@H](C)N(C)C(=O)C[C@@H](C(=O)N2CCCCC2)N(C)C(=O)[C@H](C(C)C)N(C)C(=O)C2(CCCC2)NC(=O)[C@@H]2CCCN2C(=O)[C@H](CCc2cc(Cl)c(Cl)c(OC)c2)NC(=O)CN(C)C(=O)[C@H](CC2CCCCC2)N(C)C(=O)CN(C)C(=O)CN(C)C1=O [Compound 2061] ([NMeA]I[Sar][Sar][NMeCha][Sar][X15]P[Ac5c][NMeV][NMeD]-Piperidide; lactam N-11) | 7.68 | < 6.30 |
| CC[C@H](C)[C@@H]1NC(=O)[C@H](CC(C)C)N(C)C(=O)C[C@@H](C(=O)N2CCCCC2)N(C)C(=O)[C@H](C2CCCC2)N(C)C(=O)C2(CCCC2)NC(=O)[C@@H]2CCCN2C(=O)[C@H](CCc2ccc3c(ccn3C)c2)NC(=O)CN(C)C(=O)[C@H](CC2CCCCC2)N(C)C(=O)[C@@H]2CCN2C(=O)[C@H](C)N(C)C1=O [Compound 2064] ([NMeL]I[NMeA][Aze][NMeCha][Sar][X49]P[Ac5c][NMeGly(cPent)][NMeD]-Piperidide; lactam N-11) | 7.92 | 6.30 to 7.00 |
| CCCCOc1cc(CC[C@@H]2NC(=O)CN(C)C(=O)[C@H](CC3CCCCC3)N(C)C(=O)CN(C)C(=O)CN(C)C(=O)[C@H]([C@@H](C)CC)NC(=O)[C@H](C)N(C)C(=O)C[C@@H](C(=O)N3CCCCC3)N(C)C(=O)[C@H](C3CCCCC3)N(C)C(=O)C3(CCCC3)NC(=O)[C@@H]3CCCN3C2=O)cc(Cl)c1Cl [Compound 2066] ([NMeA]I[Sar][Sar][NMeCha][Sar][X28]P[Ac5c][NMeChg][NMeD]-Piperidide; lactam N-11) | 7.20 | < 6.30 |
| CC[C@H](C)[C@@H]1NC(=O)[C@H](C)N(C)C(=O)C[C@@H](C(=O)N2CCCCC2)N(C)C(=O)[C@H](C(C)C)N(C)C(=O)C2(CCCC2)NC(=O)[C@@H]2CCCN2C(=O)[C@H](CCc2cc(Cl)c(Cl)c(C#N)c2)NC(=O)CN(C)C(=O)[C@H](CC2CCCCC2)N(C)C(=O)CN(C)C(=O)CN(C)C1=O [Compound 2071] ([NMeA]I[Sar][Sar][NMeCha][Sar][X29]P[Ac5c][NMeV][NMeD]-Piperidide; lactam N-11) | 8.04 | < 6.30 |
| CC[C@H](C)[C@@H]1NC(=O)[C@H](C)N(C)C(=O)C[C@@H](C(=O)N2CCCCC2)N(C)C(=O)[C@H](C(C)C)N(C)C(=O)C2(CCCC2)NC(=O)[C@@H]2CCCN2C(=O)[C@H](CCc2cc(Cl)c(Cl)c(OC(C)(C)C)c2)NC(=O)CN(C)C(=O)[C@H](CC2CCCCC2)N(C)C(=O)CN(C)C(=O)CN(C)C1=O [Compound 2073] ([NMeA]I[Sar][Sar][NMeCha][Sar][X19]P[Ac5c][NMeV][NMeD]-Piperidide; lactam N-11) | 7.92 | < 6.30 |
| CC[C@H](C)[C@@H]1NC(=O)[C@H](C)N(C)C(=O)C[C@@H](C(=O)N2CCCCC2)N(C)C(=O)[C@H](C2CCCCC2)N(C)C(=O)C2(CCCC2)NC(=O)[C@@H]2CCCN2C(=O)[C@H](CCc2cc(Cl)c(Cl)c(C#N)c2)NC(=O)CN(C)C(=O)[C@H](CC2CCCCC2)N(C)C(=O)CN(C)C(=O)CN(C)C1=O [Compound 2075] ([NMeA]I[Sar][Sar][NMeCha][Sar][X29]P[Ac5c][NMeChg][NMeD]-Piperidide; lactam N-11) | 8.96 | < 6.30 |
| CC[C@H](C)[C@@H]1NC(=O)[C@H](C)N(C)C(=O)C[C@@H](C(=O)N2CCCCC2)N(C)C(=O)[C@H](C2CCCCC2)N(C)C(=O)C2(CCCC2)NC(=O)[C@@H]2CCCN2C(=O)[C@H](CCc2cc(Cl)c(Cl)c(OC)c2)NC(=O)CN(C)C(=O)[C@H](CC2CCCCC2)N(C)C(=O)CN(C)C(=O)CN(C)C1=O [Compound 2081] ([NMeA]I[Sar][Sar][NMeCha][Sar][X15]P[Ac5c][NMeChg][NMeD]-Piperidide; lactam N-11) | 8.70 | < 6.30 |
| CC[C@H](C)[C@@H]1NC(=O)[C@H](C)N(C)C(=O)C[C@@H](C(=O)N2CCCCC2)N(C)C(=O)[C@H](C2CCCCC2)N(C)C(=O)C2(CCCC2)NC(=O)[C@@H]2CCCN2C(=O)[C@H](CCc2cc(Cl)c(Cl)c(OC(C)(C)C)c2)NC(=O)CN(C)C(=O)[C@H](CC2CCCCC2)N(C)C(=O)CN(C)C(=O)CN(C)C1=O [Compound 2082] ([NMeA]I[Sar][Sar][NMeCha][Sar][X19]P[Ac5c][NMeChg][NMeD]-Piperidide; lactam N-11) | 7.39 | < 6.30 |
| CCCCOc1cc(CC[C@@H]2NC(=O)CN(C)C(=O)[C@H](CC3CCCCC3)N(C)C(=O)CN(C)C(=O)CN(C)C(=O)[C@H]([C@@H](C)CC)NC(=O)[C@H](C)N(C)C(=O)C[C@@H](C(=O)N3CCCCC3)N(C)C(=O)[C@H](C(C)C)N(C)C(=O)C3(CCCC3)NC(=O)[C@@H]3CCCN3C2=O)cc(Cl)c1Cl [Compound 2083] ([NMeA]I[Sar][Sar][NMeCha][Sar][X28]P[Ac5c][NMeV][NMeD]-Piperidide; lactam N-11) | 7.28 | < 6.30 |
| CC[C@H](C)[C@@H]1NC(=O)[C@H](C)N(C)C(=O)C[C@@H](C(=O)N2CCCCC2)N(C)C(=O)[C@H](C2CCC2)N(C)C(=O)C(C)(C)N(C)C(=O)CN(c2ccccc2)C(=O)[C@H](CCc2ccc(C(F)(F)F)c(Cl)c2)NC(=O)CN(C)C(=O)[C@H](C2CCC2)N(C)C(=O)[C@@H]2CCN2C(=O)[C@H](C)N(C)C1=O [Compound 2144] ([NMeA]I[NMeA][Aze][NMeGly(cBu)][Sar][hPhe(3-Cl-4-CF3)][NPhGly][NMeAib][NMeGly(cBu)][NMeD]-Piperidide; lactam N-11) | 8.16 | < 6.30 |
| CC[C@H](C)[C@@H]1NC(=O)[C@H](C)N(C)C(=O)C[C@@H](C(=O)N2CCCCC2)N(C)C(=O)[C@H](C2CCC2)N(C)C(=O)C(C)(C)N(C)C(=O)CN(c2cccc(Cl)c2)C(=O)[C@H](CCc2ccc(C(F)(F)F)c(Cl)c2)NC(=O)CN(C)C(=O)[C@H](C2CCC2)N(C)C(=O)[C@@H]2CCN2C(=O)[C@H](C)N(C)C1=O [Compound 2146] ([NMeA]I[NMeA][Aze][NMeGly(cBu)][Sar][hPhe(3-Cl-4-CF3)][X21][NMeAib][NMeGly(cBu)][NMeD]-Piperidide; lactam N-11) | 8.29 | < 6.30 |
| CC[C@H](C)[C@@H]1NC(=O)[C@H](C)N(C)C(=O)C[C@@H](C(=O)N2CCCCC2)N(C)C(=O)[C@H](C2CCC2)N(C)C(=O)C(C)(C)N(C)C(=O)CN(c2ccc(Cl)cc2)C(=O)[C@H](CCc2ccc(C(F)(F)F)c(Cl)c2)NC(=O)CN(C)C(=O)[C@H](C2CCC2)N(C)C(=O)[C@@H]2CCN2C(=O)[C@H](C)N(C)C1=O [Compound 2147] ([NMeA]I[NMeA][Aze][NMeGly(cBu)][Sar][hPhe(3-Cl-4-CF3)][X43][NMeAib][NMeGly(cBu)][NMeD]-Piperidide; lactam N-11) | 8.10 | < 6.30 |
